Test results taken from ChEMBL document CHEMBL6153147 (J Med Chem, 2025).

Assays:
[1] = biological target: Serine/threonine-protein kinase PLK1 (Homo sapiens, UniProt P53350); experiment: Inhibition of human PLK1 using ATF2 as substrate incubated for 40 mins in presence of [gamma-33P]ATP/Mg acetate by scintillation counting analysis
[2] = biological target: Serine/threonine-protein kinase PLK2 (Homo sapiens, UniProt Q9NYY3); experiment: Inhibition of human PLK2 using ATF2 as substrate incubated for 40 mins in presence of [gamma-33P]ATP/Mg acetate by scintillation counting analysis
[3] = biological target: Serine/threonine-protein kinase PLK3 (Homo sapiens, UniProt Q9H4B4); experiment: Inhibition of human PLK3 using ATF2 as substrate incubated for 40 mins in presence of [gamma-33P]ATP/Mg acetate by scintillation counting analysis
[4] = Selectivity ratio of IC50 for inhibition of human PLK2 using ATF2 as substrate to IC50 for inhibition of human PLK1 using ATF2 as substrate
[5] = Selectivity ratio of IC50 for inhibition of human PLK3 using ATF2 as substrate to IC50 for inhibition of human PLK1 using ATF2 as substrate
NCI-H460 = experiment: cells; conditions: Homo sapiens
PC-9 = experiment: cells; conditions: Homo sapiens
A549 = experiment: cells; conditions: Homo sapiens
SW-620 = experiment: cells; conditions: Homo sapiens
HL-60 = experiment: cells; conditions: Homo sapiens
K562 = experiment: cells; conditions: Homo sapiens
CCRF-CEM = experiment: cells; conditions: Homo sapiens
KG-1 = experiment: cells; conditions: Homo sapiens
[6] = C0 in C57BL/6 mouse at 1 mg/kg, iv measured for 0.5 to 12 htr by LC-MS/MS analysis; type: ADME, organism-based; conditions: in vivo, time 0.5-12 hrs
[7] = Cmax in C57BL/6 mouse at 1 mg/kg, iv measured for 0.5 to […] htr by LC-MS/MS analysis; type: ADME, organism-based; conditions: in vivo, time 0.5-12 hrs
[8] = Tmax in C57BL/6 mouse at 1 mg/kg, iv measured for 0.5 to 12 htr by LC-MS/MS analysis; type: ADME, organism-based; conditions: in vivo, time 0.5-12 hrs
[9] = Half life in C57BL/6 mouse at 1 mg/kg, iv measured for 0.5 to 12 htr by LC-MS/MS analysis; type: ADME, organism-based; conditions: in vivo, time 0.5-12 hrs
[10] = AUC (0 to t) in C57BL/6 mouse at 1 mg/kg, iv measured for 0.5 to […] htr by LC-MS/MS analysis; type: ADME, organism-based; conditions: in vivo, time 0.5-12 hrs
[11] = AUC (0 to infinity) in C57BL/6 mouse at 1 mg/kg, iv measured for 0.5 to 12 htr by LC-MS/MS analysis; type: ADME, organism-based; conditions: in vivo, time 0.5-12 hrs
[12] = Clearance in C57BL/6 mouse at 1 mg/kg, iv measured for 0.5 to […] htr by LC-MS/MS analysis; type: ADME, organism-based; conditions: in vivo, time 0.5-12 hrs
[13] = MRT (0 to t) in C57BL/6 mouse at 1 mg/kg, iv measured for 0.5 to 12 htr by LC-MS/MS analysis; type: ADME, organism-based; conditions: in vivo, time 0.5-12 hrs
[14] = Volume of distribution at steady state in C57BL/6 mouse at 1 mg/kg, iv measured for 0.5 to 12 htr by LC-MS/MS analysis; type: ADME, organism-based; conditions: in vivo, time 0.5-12 hrs, read-out: Vdss
[15] = Cmax in C57BL/6 mouse at 10 mg/kg, po measured for 0.5 to […] htr by LC-MS/MS analysis; type: ADME, organism-based; conditions: in vivo, time 0.5-12 hrs
[16] = Tmax in C57BL/6 mouse at 10 mg/kg, po measured for 0.5 to 12 htr by LC-MS/MS analysis; type: ADME, organism-based; conditions: in vivo, time 0.5-12 hrs
[17] = Half life in C57BL/6 mouse at 10 mg/kg, po measured for 0.5 to 12 htr by LC-MS/MS analysis; type: ADME, organism-based; conditions: in vivo, time 0.5-12 hrs
[18] = AUC (0 to t) in C57BL/6 mouse at 10 mg/kg, po measured for 0.5 to […] htr by LC-MS/MS analysis; type: ADME, organism-based; conditions: in vivo, time 0.5-12 hrs
[19] = AUC (0 to infinity) in C57BL/6 mouse at 10 mg/kg, po measured for 0.5 to 12 htr by LC-MS/MS analysis; type: ADME, organism-based; conditions: in vivo, time 0.5-12 hrs
[20] = MRT (0 to t) in C57BL/6 mouse at 10 mg/kg, po measured for 0.5 to 12 htr by LC-MS/MS analysis; type: ADME, organism-based; conditions: in vivo, time 0.5-12 hrs
[21] = Oral bioavailability in C57BL/6 mouse at 10 mg/kg measured for 0.5 to […] htr by LC-MS/MS analysis; type: ADME, organism-based; conditions: in vivo, time 0.5-12 hrs
[22] = Metabolic stability in human liver microsomes assessed as half life preincubated for 5 mins followed by NADPH addition by LC-MS/MS analysis; type: ADME, Microsome
[23] = Metabolic stability in mouse liver microsomes assessed as half life preincubated for 5 mins followed by NADPH addition by LC-MS/MS analysis; type: ADME, Microsome
[24] = Metabolic stability in dog liver microsomes assessed as half life preincubated for 5 mins followed by NADPH addition by LC-MS/MS analysis; type: ADME, Canis lupus familiaris, Microsome
[25] = Metabolic stability in human liver microsomes assessed as intrinsic clearance preincubated for 5 mins followed by NADPH addition by LC-MS/MS analysis; type: ADME, Microsome; conditions: read-out: CLH
[26] = Metabolic stability in mouse liver microsomes assessed as intrinsic clearance preincubated for 5 mins followed by NADPH addition by LC-MS/MS analysis; type: ADME, Microsome; conditions: read-out: CLH
[27] = Metabolic stability in dog liver microsomes assessed as intrinsic clearance preincubated for 5 mins followed by NADPH addition by LC-MS/MS analysis; type: ADME, Canis lupus familiaris, Microsome; conditions: read-out: CLH
[28] = Metabolic stability in human liver microsomes assessed as intrinsic clearance in microsome measured per mg protein preincubated for 5 mins followed by NADPH addition by LC-MS/MS analysis; type: ADME; conditions: read-out: CLH
[29] = Metabolic stability in mouse liver microsomes assessed as intrinsic clearance in microsome measured per mg protein preincubated for 5 mins followed by NADPH addition by LC-MS/MS analysis; type: ADME; conditions: read-out: CLH
[30] = Metabolic stability in dog liver microsomes assessed as intrinsic clearance in microsome measured per mg protein preincubated for 5 mins followed by NADPH addition by LC-MS/MS analysis; type: ADME, Canis lupus familiaris; conditions: read-out: CLH
[31] = Solubility of compound in 0.01 M PBS at pH 7.4 assessed as fold increase equilibrated for 12 hrs by UV spectrophotometry relative to BI 2536; type: physicochemical; conditions: buffer, pH 7.4, 12 h
HEK-293T [32] = experiment: Cytotoxicity against HEK293T cells by CCK8 assay; type: toxicity, cell-based; conditions: human, dose 0.1-30 µM
[33] = Cytotoxicity against HEK293T cells assessed as inhibition of cell viability by CCK8 assay; type: toxicity, cell-based, HEK-293T; conditions: human
[34] = Cytotoxicity against HEK293T cells assessed as cell viability at 30 uM by CCK8 assay relative to control; type: toxicity, cell-based, HEK-293T; conditions: human, read-out: Activity
HEK-293T [35] = experiment: Effect on mitochondrial membrane potential in HEK293T cells at 10 uM incubated for 24 hrs by MitoTracker Red probe based analysis; type: toxicity, cell-based; conditions: human
[36] = Effect on mitochondrial membrane integrity in HEK293T cells at 10 uM incubated for 24 hrs by JC-1 dye based analysis; type: toxicity, cell-based; conditions: human, hek-293t
[37] = Effect on F-actin cytoskeleton in HEK293T cells at 10 uM incubated for 24 hrs by immunofluorescence based analysis; type: toxicity, cell-based; conditions: human, hek-293t
[38] = biological target: Voltage-gated inwardly rectifying potassium channel KCNH2 (Homo sapiens, UniProt Q12809); experiment: Inhibition of hERG transfected in CHO cells; type: toxicity, cell-based
Chain of Voltage-gated inwardly rectifying potassium channel KCNH2 (Q12809 whole entry): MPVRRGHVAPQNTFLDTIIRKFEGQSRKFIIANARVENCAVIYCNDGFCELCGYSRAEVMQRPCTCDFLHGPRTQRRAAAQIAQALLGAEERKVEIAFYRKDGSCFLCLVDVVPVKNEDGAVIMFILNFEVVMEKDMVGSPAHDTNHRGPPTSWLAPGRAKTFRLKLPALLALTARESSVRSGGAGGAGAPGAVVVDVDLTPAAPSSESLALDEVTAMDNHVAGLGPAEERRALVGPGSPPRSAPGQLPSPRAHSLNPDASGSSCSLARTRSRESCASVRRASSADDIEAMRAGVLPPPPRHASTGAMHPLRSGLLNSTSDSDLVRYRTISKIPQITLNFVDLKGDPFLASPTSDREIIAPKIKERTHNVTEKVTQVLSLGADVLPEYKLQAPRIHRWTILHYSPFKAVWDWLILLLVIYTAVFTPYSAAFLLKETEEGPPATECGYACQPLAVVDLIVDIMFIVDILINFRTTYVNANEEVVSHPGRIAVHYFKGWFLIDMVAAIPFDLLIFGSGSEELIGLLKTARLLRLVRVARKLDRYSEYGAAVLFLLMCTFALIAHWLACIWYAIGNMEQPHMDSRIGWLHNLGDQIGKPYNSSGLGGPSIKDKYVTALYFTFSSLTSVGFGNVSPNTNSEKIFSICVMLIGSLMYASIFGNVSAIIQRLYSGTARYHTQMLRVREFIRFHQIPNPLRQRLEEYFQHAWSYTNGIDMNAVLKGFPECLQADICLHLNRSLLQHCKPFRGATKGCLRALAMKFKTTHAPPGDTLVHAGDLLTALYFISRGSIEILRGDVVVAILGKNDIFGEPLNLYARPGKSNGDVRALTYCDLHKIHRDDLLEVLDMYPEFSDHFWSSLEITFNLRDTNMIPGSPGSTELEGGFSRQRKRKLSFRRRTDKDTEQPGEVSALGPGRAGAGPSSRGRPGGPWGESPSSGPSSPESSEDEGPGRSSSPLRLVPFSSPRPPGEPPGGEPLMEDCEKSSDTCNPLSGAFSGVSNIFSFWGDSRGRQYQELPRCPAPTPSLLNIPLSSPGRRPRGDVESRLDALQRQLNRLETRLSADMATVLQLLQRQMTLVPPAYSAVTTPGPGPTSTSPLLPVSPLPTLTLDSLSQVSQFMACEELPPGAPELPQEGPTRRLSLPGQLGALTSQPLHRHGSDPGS

Chain of Serine/threonine-protein kinase PLK3 (Q9H4B4 whole entry): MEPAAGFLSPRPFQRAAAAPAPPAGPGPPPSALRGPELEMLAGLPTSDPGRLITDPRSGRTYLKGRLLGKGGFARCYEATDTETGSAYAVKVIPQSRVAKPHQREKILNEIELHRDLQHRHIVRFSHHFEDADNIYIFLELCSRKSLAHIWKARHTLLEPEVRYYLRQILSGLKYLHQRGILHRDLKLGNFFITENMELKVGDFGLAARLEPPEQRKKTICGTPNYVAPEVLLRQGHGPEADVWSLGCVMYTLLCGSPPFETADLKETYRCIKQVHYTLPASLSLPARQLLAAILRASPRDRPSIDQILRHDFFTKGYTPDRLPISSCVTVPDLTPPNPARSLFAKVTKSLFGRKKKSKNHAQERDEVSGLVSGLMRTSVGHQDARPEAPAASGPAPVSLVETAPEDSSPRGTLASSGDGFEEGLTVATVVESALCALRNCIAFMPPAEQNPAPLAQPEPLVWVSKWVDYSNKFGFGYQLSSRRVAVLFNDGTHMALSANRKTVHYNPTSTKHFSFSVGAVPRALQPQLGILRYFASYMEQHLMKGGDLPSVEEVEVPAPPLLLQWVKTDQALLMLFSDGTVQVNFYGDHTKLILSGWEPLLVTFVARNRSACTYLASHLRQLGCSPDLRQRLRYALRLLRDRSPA
Chain of Serine/threonine-protein kinase PLK1 (P53350 whole entry): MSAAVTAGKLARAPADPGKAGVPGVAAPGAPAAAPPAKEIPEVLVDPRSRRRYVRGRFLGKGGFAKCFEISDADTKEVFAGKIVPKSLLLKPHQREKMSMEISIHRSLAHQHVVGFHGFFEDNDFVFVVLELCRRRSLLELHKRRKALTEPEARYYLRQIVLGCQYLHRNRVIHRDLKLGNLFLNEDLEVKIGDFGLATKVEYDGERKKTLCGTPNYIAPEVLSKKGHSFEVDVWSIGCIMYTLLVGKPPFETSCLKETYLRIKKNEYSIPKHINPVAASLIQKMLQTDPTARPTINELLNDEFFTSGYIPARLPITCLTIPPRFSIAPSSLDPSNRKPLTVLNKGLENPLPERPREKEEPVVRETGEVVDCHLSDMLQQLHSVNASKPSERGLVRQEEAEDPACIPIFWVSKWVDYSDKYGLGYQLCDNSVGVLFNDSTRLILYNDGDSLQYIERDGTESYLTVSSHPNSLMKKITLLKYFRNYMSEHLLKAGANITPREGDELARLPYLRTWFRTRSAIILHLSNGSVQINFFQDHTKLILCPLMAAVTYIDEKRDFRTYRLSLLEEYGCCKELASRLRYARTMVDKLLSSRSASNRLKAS
Chain of Serine/threonine-protein kinase PLK2 (Q9NYY3 whole entry): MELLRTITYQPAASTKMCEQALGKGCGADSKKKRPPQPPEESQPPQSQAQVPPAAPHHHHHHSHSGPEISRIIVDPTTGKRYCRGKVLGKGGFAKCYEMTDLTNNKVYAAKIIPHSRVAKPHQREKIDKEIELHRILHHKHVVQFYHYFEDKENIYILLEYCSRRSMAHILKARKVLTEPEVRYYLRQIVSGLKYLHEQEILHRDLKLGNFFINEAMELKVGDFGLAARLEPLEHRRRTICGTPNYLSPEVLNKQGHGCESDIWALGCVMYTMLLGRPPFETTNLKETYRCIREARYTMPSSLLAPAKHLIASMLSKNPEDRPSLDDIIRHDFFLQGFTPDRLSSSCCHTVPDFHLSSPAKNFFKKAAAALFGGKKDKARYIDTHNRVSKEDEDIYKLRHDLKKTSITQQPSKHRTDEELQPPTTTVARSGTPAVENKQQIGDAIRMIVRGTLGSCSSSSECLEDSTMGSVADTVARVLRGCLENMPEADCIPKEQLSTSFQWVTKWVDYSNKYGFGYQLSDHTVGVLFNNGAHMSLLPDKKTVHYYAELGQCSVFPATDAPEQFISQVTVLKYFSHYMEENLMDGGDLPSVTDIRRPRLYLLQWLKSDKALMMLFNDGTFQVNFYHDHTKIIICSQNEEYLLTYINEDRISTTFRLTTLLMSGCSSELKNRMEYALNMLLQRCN

Row | IC50 [1] | IC50 [2] | IC50 [3] | IC50 (NCI-H460) | IC50 (PC-9) | IC50 (A549) | IC50 (SW-620) | IC50 (HL-60) | IC50 (K562) | IC50 (CCRF-CEM) | IC50 (KG-1) | C0 [6] | Cmax [7] | Tmax [8] | half-life [9] | AUC(0-t) [10] | AUC(0-inf) [11] | clearance [12] | SMILES | ratio [4] | ratio [5] | further results
1 | 11 nM | 7900 nM | 2000 nM | 27 nM | 65 nM | 103 nM | 18 nM | 31 nM | 1780 nM | 90 nM | 4810 nM | – | – | – | – | – | – | – | CC[C@@H]1C(=O)N(C)c2cnc(Nc3cc(N4CCN(C)CC4)cc(F)c3OCCCO)nc2N1C1CCCC1 | 700 | 178 | –
2 | – | – | – | – | – | – | – | – | – | – | – | 227 ng/mL | 175 ng/mL | 4.98 min | 41.4 min | 116 ng·h/mL | 117 ng·h/mL | 143 mL/min/kg | CC[C@@H]1C(=O)N(C)c2cnc(Nc3ccc(C(=O)NC4CCN(C)CC4)cc3OC)nc2N1C1CCCC1 [BI-2536] | – | – | MRT last [13]: 42 min; Vd [14]: 6 L/kg; Cmax [15]: 40 ng/mL; Tmax [16]: 25.2 min; half-life [17]: 84 min; AUC(0-t) [18]: 89 ng·h/mL; AUC(0-inf) [19]: 96 ng·h/mL; MRT last [20]: 126 min; bioavailability [21]: 8.2%; half-life [22]: 57.4 min; half-life [23]: 40.2 min; half-life [24]: 27.4 min; CLint scaled [25]: 30.3 mL/min/kg; CLint scaled [26]: 136 mL/min/kg; CLint scaled [27]: 126 mL/min/kg; microsomal CLint [28]: 24.1 µL/min/mg; microsomal CLint [29]: 34.5 µL/min/mg; microsomal CLint [30]: 50.6 µL/min/mg
3 | 20 nM | 4940 nM | 3230 nM | 32 nM | 164 nM | 154 nM | 217 nM | 53 nM | 0.67 nM | 40 nM | > 10000 nM | 753 ng/mL | 471 ng/mL | 4.98 min | 40.8 min | 226 ng·h/mL | 228 ng·h/mL | 73 mL/min/kg | CC[C@@H]1C(=O)N(C)c2cnc(Nc3cc(N4CCN(C)CC4)ccc3OCCCO)nc2N1C1CCCC1 | 247 | 161 | fold change (FC) [31]: > 2; MRT last [13]: 34.8 min; Vd [14]: 2.5 L/kg; Cmax [15]: 201 ng/mL; Tmax [16]: 25.2 min; half-life [17]: 66 min; AUC(0-t) [18]: 449 ng·h/mL; AUC(0-inf) [19]: 452 ng·h/mL; MRT last [20]: 108 min; bioavailability [21]: 20%; Activity (HEK-293T [32]): Dose-dependent-effect; IC50 [33]: 38200 nM; viability at 30 µM [34]: 16.5%; Activity (HEK-293T [35]): Non-toxic; Activity [36]: Non-toxic; Activity [37]: Non-toxic; IC50 [38]: 13300 nM
